Assay results taken from article PMC10295463, “Computational Characterization of the Binding Properties of the HIV1-Neutralizing Antibody PG16 and Design of PG16-Derived CDRH3 Peptides” (Biology, 2023).
Bridge positions count the residues as written; N and C are the ends. Square brackets hold non-standard residues; d marks the D form. Peptide text beside a SMILES is read from it. * marks the point of attachment. Biotin = O=C1N[C@H]2[C@H](CS[C@H]2CCCCC(=O)*)N1; pY = N[C@@H](Cc1ccc(OP(=O)(O)O)cc1)C(=O)O; AEEA = NCCOCCOCC(=O)O

Target: T1, gp120 HxBc2 (Human immunodeficiency virus type 1 group M subtype B, UniProt P04578)
T1 construct: incubated for 3 h with gp120 HxBc2 (ImmuneTech); purchased ImmuneTech
Test: Peptide binding assay (ELISA): gp120 binding to immobilized biotinylated peptide
Parameters: species or system HIV-1
Conditions: same ELISA, gp120 up to 16.6 nM
Protocol: High-binding Corning Costar microtiter half-area plates were coated with Neutravidin (Thermo Scientific, Dreieich, Germany, 4.0 μ g /mL) in 0.1 M carbonate buffer pH 9.6, overnight at 4 ^∘C . After the blocking of unspecific binding with 1% BSA in 0.1 M phosphate buffer pH 7.2, for 1 h , the neutravidin-coated plate was incubated with 2 μ m biotinylated peptide for 2 h . Plates were then incubated for 3 h with gp120 HxBc2 (ImmuneTech, New York, NY, USA) at three-fold serial dilutions, starting at 16.6 nM. Bound gp120 was detected with sheep anti-gp120 (Aalto Bio Reagents, Dublin, Ireland) 0.1 μ g /mL) for 1 h , followed by rabbit anti-sheep-HRP conjugate (Jackson Immuno Research, Ely, UK, 0.1 μ g /mL) for 1 h . All peptides and proteins were diluted in 0.1 M phosphate buffer pH 7.2, containing 0.01% Tween. Plates were developed with OPD ( 1 m g /mL) in the presence of 0.03% H2O2 for approximately 10 min in the dark. After the reaction was stopped with 2 M H2SO4, absorbance was read at 492 n m . The absorbance of the blanks (samples without peptide) was subtracted. All data points present means of duplicates. Curves were fitted and EC50 values calculated using the program Origin 2021 (OriginLab Corporation, Northampton, MA, USA).

## CC[C@H](C)[C@@H]1NC(=O)[C@@H](NC(=O)CNC(=O)COCCOCCNC(=O)CCCC[C@@H]2SC[C@@H]3NC(=O)N[C@@H]32)CSSC[C@@H](C(=O)N[C@@H](Cc2ccc(O)cc2)C(=O)N[C@@H](Cc2ccc(OP(=O)(O)O)cc2)C(=O)N[C@@H](CC(=O)O)C(=O)N[C@@H](Cc2ccccc2)C(=O)N[C@@H](CC(N)=O)C(=O)N[C@@H](CC(=O)O)C(=O)NCC(N)=O)NC(=O)[C@H](C(C)C)NC(=O)[C@H](CC(=O)O)NC(=O)[C@H](CC(=O)O)NC(=O)[C@H](Cc2c[nH]cn2)NC(=O)[C@H](Cc2c[nH]c3ccccc23)NC1=O [LW40.2] ({Biotin-AEEA}-GCIWHDDVCY[pY]DFNDG-NH2; disulfide 2-9)
  binding of gp120 to the peptide (in words): no detectable binding at all
